Measurements as given in PubChem BioAssay (NCI).
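Dose response: 5 concentrations. Exposure: 48 h. Format: 96-well plates. Endpoint: linear interpolation; highest concentration if not reached. TGI: total growth inhibition.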

Legend:
Experiment in all cases: growth of human tumour cells (NCI), 48 h
786-0 renal = system: 786-0 renal
A498 renal = system: A498 renal
A549 NSCLC = system: A549 NSCLC
ACHN renal = system: ACHN renal
CCRF-CEM leukemia = system: CCRF-CEM leukemia
COLO 205 colon = system: COLO 205 colon
DU-145 prostate = system: DU-145 prostate
EKVX NSCLC = system: EKVX NSCLC
HCT-116 colon = system: HCT-116 colon
HCT-15 colon = system: HCT-15 colon
HOP-62 NSCLC = system: HOP-62 NSCLC
HOP-92 NSCLC = system: HOP-92 NSCLC
HS 578T breast = system: HS 578T breast
HT29 colon = system: HT29 colon
IGROV1 ovarian = system: IGROV1 ovarian
K-562 leukemia = system: K-562 leukemia
KM12 colon = system: KM12 colon
LOX IMVI melanoma = system: LOX IMVI melanoma
M14 melanoma = system: M14 melanoma
MALME-3M melanoma = system: MALME-3M melanoma
MCF7 breast = system: MCF7 breast
MDA-MB-231 breast = system: MDA-MB-231 breast
MDA-MB-435 = system: MDA-MB-435
MDA-N = system: MDA-N
MOLT-4 leukemia = system: MOLT-4 leukemia
NCI-H226 lung = system: NCI-H226 lung
NCI-H23 lung = system: NCI-H23 lung
NCI/ADR-RES ovarian = system: NCI/ADR-RES ovarian
OVCAR-3 ovarian = system: OVCAR-3 ovarian
OVCAR-4 ovarian = system: OVCAR-4 ovarian
OVCAR-5 ovarian = system: OVCAR-5 ovarian
OVCAR-8 ovarian = system: OVCAR-8 ovarian
PC-3 prostate = system: PC-3 prostate
RPMI-8226 leukemia = system: RPMI-8226 leukemia
SF-268 CNS = system: SF-268 CNS
SF-295 CNS = system: SF-295 CNS
SK-MEL-2 melanoma = system: SK-MEL-2 melanoma
SK-MEL-28 melanoma = system: SK-MEL-28 melanoma
SK-MEL-5 melanoma = system: SK-MEL-5 melanoma
SK-OV-3 ovarian = system: SK-OV-3 ovarian
SN12C renal = system: SN12C renal
SNB-19 CNS = system: SNB-19 CNS
SNB-75 CNS = system: SNB-75 CNS
SR leukemia = system: SR leukemia
SW-620 colon = system: SW-620 colon
TK-10 renal = system: TK-10 renal
U251 CNS = system: U251 CNS
UACC-257 melanoma = system: UACC-257 melanoma
UACC-62 melanoma = system: UACC-62 melanoma
UO-31 renal = system: UO-31 renal
CAKI-1 renal = system: CAKI-1 renal
HL-60(TB) leukemia = system: HL-60(TB) leukemia
NCI-H460 lung = system: NCI-H460 lung
SF-539 CNS = system: SF-539 CNS
T-47D breast = system: T-47D breast

O=C1/C(=C/c2ccccc2)NC(=S)N1CN1CCOCC1 showed a TGI (786-0 renal) of over 100 µM, a TGI (A498 renal) of over 100 µM and a TGI (A549 NSCLC) of over 100 µM. The TGI (ACHN renal) was over 100 µM, the TGI (CCRF-CEM leukemia) was over 100 µM and the TGI (COLO 205 colon) was over 100 µM. It also gave a TGI (DU-145 prostate) of over 100 µM, a TGI (EKVX NSCLC) of over 100 µM and a TGI (HCT-116 colon) of over 100 µM. For the same molecule, the TGI (HCT-15 colon) was over 100 µM, the TGI (HOP-62 NSCLC) was over 100 µM and the TGI (HOP-92 NSCLC) was over 100 µM. For the same molecule, the TGI (HS 578T breast) was over 100 µM, the TGI (HT29 colon) was over 100 µM and the TGI (IGROV1 ovarian) was over 100 µM. The TGI (K-562 leukemia) was over 100 µM, the TGI (KM12 colon) was over 100 µM and the TGI (LOX IMVI melanoma) was over 100 µM. It also gave a TGI (M14 melanoma) of over 100 µM, a TGI (MALME-3M melanoma) of over 100 µM and a TGI (MCF7 breast) of over 100 µM. It also gave a TGI (MDA-MB-231 breast) of over 100 µM, a TGI (MDA-MB-435) of over 100 µM and a TGI (MDA-N) of over 100 µM. For the same molecule, the TGI (MOLT-4 leukemia) was over 100 µM, the TGI (NCI-H226 lung) was over 100 µM and the TGI (NCI-H23 lung) was over 100 µM. For the same molecule, the TGI (NCI/ADR-RES ovarian) was over 100 µM, the TGI (OVCAR-3 ovarian) was over 100 µM and the TGI (OVCAR-4 ovarian) was over 100 µM. It also gave a TGI (OVCAR-5 ovarian) of over 100 µM, a TGI (OVCAR-8 ovarian) of over 100 µM and a TGI (PC-3 prostate) of over 100 µM. It also gave a TGI (RPMI-8226 leukemia) of over 100 µM, a TGI (SF-268 CNS) of over 100 µM and a TGI (SF-295 CNS) of over 100 µM. It also gave a TGI (SK-MEL-2 melanoma) of over 100 µM, a TGI (SK-MEL-28 melanoma) of over 100 µM and a TGI (SK-MEL-5 melanoma) of over 100 µM. The TGI (SK-OV-3 ovarian) was over 100 µM, the TGI (SN12C renal) was over 100 µM and the TGI (SNB-19 CNS) was over 100 µM. The TGI (SNB-75 CNS) was over 100 µM, the TGI (SR leukemia) was over 100 µM and the TGI (SW-620 colon) was over 100 µM. The TGI (TK-10 renal) was over 100 µM, the TGI (U251 CNS) was over 100 µM and the TGI (UACC-257 melanoma) was over 100 µM. It also gave a TGI (UACC-62 melanoma) of over 100 µM and a TGI (UO-31 renal) of over 100 µM.
Molecule CCOC(=O)c1ccc(NC(=O)O/N=C(/Cl)CCl)cc1 has a TGI (786-0 renal) of over 100 µM, a TGI (A498 renal) of over 100 µM and a TGI (A549 NSCLC) of over 100 µM. The TGI (ACHN renal) was over 100 µM, the TGI (CAKI-1 renal) was over 100 µM and the TGI (CCRF-CEM leukemia) was over 100 µM. For the same molecule, the TGI (COLO 205 colon) was over 100 µM, the TGI (DU-145 prostate) was over 100 µM and the TGI (EKVX NSCLC) was over 100 µM. It also gave a TGI (HCT-116 colon) of over 100 µM, a TGI (HCT-15 colon) of over 100 µM and a TGI (HL-60(TB) leukemia) of 68.7 µM. For the same molecule, the TGI (HOP-62 NSCLC) was over 100 µM, the TGI (HS 578T breast) was over 100 µM and the TGI (HT29 colon) was over 100 µM. For the same molecule, the TGI (IGROV1 ovarian) was over 100 µM, the TGI (K-562 leukemia) was over 100 µM and the TGI (KM12 colon) was over 100 µM. For the same molecule, the TGI (LOX IMVI melanoma) was over 100 µM, the TGI (MALME-3M melanoma) was over 100 µM and the TGI (MCF7 breast) was 76 µM. For the same molecule, the TGI (MDA-MB-231 breast) was over 100 µM, the TGI (MDA-N) was over 100 µM and the TGI (MOLT-4 leukemia) was over 100 µM. The TGI (NCI-H23 lung) was over 100 µM, the TGI (NCI-H460 lung) was over 100 µM and the TGI (NCI/ADR-RES ovarian) was over 100 µM. It also gave a TGI (OVCAR-3 ovarian) of over 100 µM, a TGI (OVCAR-4 ovarian) of over 100 µM and a TGI (OVCAR-5 ovarian) of over 100 µM. For the same molecule, the TGI (OVCAR-8 ovarian) was over 100 µM, the TGI (PC-3 prostate) was over 100 µM and the TGI (RPMI-8226 leukemia) was over 100 µM. For the same molecule, the TGI (SF-268 CNS) was over 100 µM, the TGI (SF-295 CNS) was over 100 µM and the TGI (SF-539 CNS) was over 100 µM. For the same molecule, the TGI (SK-MEL-2 melanoma) was over 100 µM, the TGI (SK-MEL-28 melanoma) was over 100 µM and the TGI (SK-MEL-5 melanoma) was over 100 µM. It also gave a TGI (SK-OV-3 ovarian) of over 100 µM, a TGI (SN12C renal) of over 100 µM and a TGI (SNB-19 CNS) of over 100 µM. The TGI (SNB-75 CNS) was over 100 µM, the TGI (SR leukemia) was over 100 µM and the TGI (SW-620 colon) was over 100 µM. The TGI (T-47D breast) was over 100 µM, the TGI (TK-10 renal) was over 100 µM and the TGI (U251 CNS) was over 100 µM. The TGI (UACC-257 melanoma) was over 100 µM and the TGI (UO-31 renal) was over 100 µM.
